Source: patent US20220370440A1 (Lead Discovery Center GmbH, priority 2018, published 2022)

Columns and labels:
HER2 INS YVMA = target: T1, HER2 INS YVMA (Homo sapiens, UniProt P04626, INS775YVMA); assay: Lance Kinase Activity Assay, HER2 INS YVMA (Her2 Exon 20 INSYVMA Lance); type: biochemical; conditions: biochemical Lance assay
T1 construct: purchased DPF
Summary of the method: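 Kinase phosphorylates a ULight-labelled peptide substrate; Eu anti-phospho antibody gives TR-FRET (ex 340 nm, em 665/615 nm). Compounds in 1:3 serial dilution over 8 steps, reaction started with ATP, 1 h at room temperature, stopped with EDTA-containing detection mix for 1 h. IC50 from sigmoidal dose-response curves.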

[1] = target: Her2 Exon 20 INSYVMA Ba/F3 (Homo sapiens, UniProt P04626, DUP772-775, cells depend on it); assay: Her2 Exon 20 INSYVMA Ba/F3 CellTiter-Glo; type: cell-based; conditions: CellTiter-Glo, 72 h, read-out: Her2 Exon 20 INSYVMA Ba/F3 CTG IC50
Summary of the method: (§1)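 IC50 values, binned A (≤100 nM) through E (>10000 nM), come from luminescent ATP quantitation of viable mutant-driven Ba/F3 cells. Compound exposure lasted 72 h, starting 24 h post-seeding; DMSO and 10 μM staurosporine served as controls, Z′ ≥0.5 required.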

[2] = target: EGFR Exon 20 INSNPH Ba/F3 (Homo sapiens, UniProt P00533, DUP771-773, cells depend on it); assay: EGFR Exon 20 INSNPH Ba/F3 CellTiter-Glo; type: cell-based; conditions: CellTiter-Glo, 72 h, read-out: EGFR Exon 20 INSNPH Ba/F3 CTG IC50
Summary of the method: as §1

EGFR T790ML858R = EGFR T790ML858R (Homo sapiens, UniProt P00533, L858R/T790M); assay: EGFR T790ML858R Lance assay; type: biochemical
Procedure: (§2) Inhibition is indicated as […] [nM] (“−”=not measured). Compounds having an activity designated as “A” provided an IC50≤100 nM; compounds having an activity designated as “B” provided an 100 nM<IC50≤500 nM; compounds having an activity designated as “C” provided an 500 nM<IC50≤1000 nM; compounds having an activity designated as “D” provided an 1000 nM<IC50≤100000 nM; and compounds having an activity designated as “E” provided an IC50>10000 nM.

EGFR wt = EGFR wt (Homo sapiens, UniProt P00533); assay: EGFR wt Lance assay; type: biochemical
Procedure: as §2

H1975 = H1975 CellTiter-Glo; type: cell-based; conditions: Homo sapiens, NCI-H1975; 72 h compound incubation; read-out: H1975 CTG IC50
Summary of the method: (§3)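 Antiproliferative IC50 values come from a 72 h treatment of cultured cells, measured by CellTiter-Glo ATP luminescence. Only runs with a Z′-factor of at least 0.5, calculated from 16 vehicle and 16 Staurosporine (10 μM) control wells, are reported.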

A431 = A431 CellTiter-Glo; type: cell-based; conditions: Homo sapiens, A-431; 72 h compound incubation; read-out: A431 CTG IC50
Summary of the method: as §3

[3] = Metabolic stability in mouse liver microsomes without cofactor NADPH; type: in vitro ADME; conditions: 3 μM test compound, mouse liver microsomes, without NADPH, 50 min, 37° C., LC-MS/MS
Text: There are two major groups of enzyme reactions catalyzed by drug metabolizing enzymes, the so called Phase I and Phase II reactions. The basic processes in phase I reactions are oxidation, reduction and/or hydrolysis mostly catalyzed by the cytochrome P450 (CYP) family of enzymes.
The following procedures describe the determination of the in vitro Phase I metabolic stability of test compounds using liver microsomes by measuring compound depletion over time. Test compound at the concentration of 3 μM was incubated with the liver microsomes from the mouse species and the experiment was performed without NADPH. The depletion of the test compounds was measured over time up to 50 minutes at 37° C. by LC-MS/MS. Different compounds were tested under these conditions for microsomal stability (see Table 5).

T1 sequence (P04626 with tags, fused parts or gaps INS775YVMA): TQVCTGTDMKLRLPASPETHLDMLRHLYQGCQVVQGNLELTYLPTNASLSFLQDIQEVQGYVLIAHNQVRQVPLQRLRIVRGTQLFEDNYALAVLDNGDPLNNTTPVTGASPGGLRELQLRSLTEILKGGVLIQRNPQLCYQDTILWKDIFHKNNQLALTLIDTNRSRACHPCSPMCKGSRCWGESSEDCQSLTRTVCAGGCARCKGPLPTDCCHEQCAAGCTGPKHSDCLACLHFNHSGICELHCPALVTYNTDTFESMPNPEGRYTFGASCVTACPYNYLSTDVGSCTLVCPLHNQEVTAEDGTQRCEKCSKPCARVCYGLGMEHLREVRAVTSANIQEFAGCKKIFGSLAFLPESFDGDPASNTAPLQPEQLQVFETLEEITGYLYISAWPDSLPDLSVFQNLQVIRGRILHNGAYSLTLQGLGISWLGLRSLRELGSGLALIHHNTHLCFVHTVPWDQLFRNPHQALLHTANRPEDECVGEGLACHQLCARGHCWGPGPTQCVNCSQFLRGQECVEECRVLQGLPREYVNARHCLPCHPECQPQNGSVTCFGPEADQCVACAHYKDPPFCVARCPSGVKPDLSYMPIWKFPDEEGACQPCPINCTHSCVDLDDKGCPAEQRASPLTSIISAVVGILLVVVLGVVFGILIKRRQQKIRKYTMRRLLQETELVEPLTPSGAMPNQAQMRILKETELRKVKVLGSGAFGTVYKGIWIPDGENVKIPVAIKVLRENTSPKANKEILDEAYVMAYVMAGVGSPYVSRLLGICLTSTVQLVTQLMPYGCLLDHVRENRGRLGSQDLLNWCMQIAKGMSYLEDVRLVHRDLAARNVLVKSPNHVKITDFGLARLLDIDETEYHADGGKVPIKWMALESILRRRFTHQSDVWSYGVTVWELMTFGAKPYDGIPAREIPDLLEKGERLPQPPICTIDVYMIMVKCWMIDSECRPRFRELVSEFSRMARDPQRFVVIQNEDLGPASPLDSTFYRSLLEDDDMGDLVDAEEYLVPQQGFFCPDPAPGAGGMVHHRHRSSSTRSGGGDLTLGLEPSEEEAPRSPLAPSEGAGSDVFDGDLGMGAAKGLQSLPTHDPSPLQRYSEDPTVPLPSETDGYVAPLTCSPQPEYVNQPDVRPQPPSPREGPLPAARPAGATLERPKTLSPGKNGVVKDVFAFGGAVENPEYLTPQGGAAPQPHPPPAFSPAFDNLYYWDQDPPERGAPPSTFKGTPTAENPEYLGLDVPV
Sequence of EGFR wt (P00533 25-1210): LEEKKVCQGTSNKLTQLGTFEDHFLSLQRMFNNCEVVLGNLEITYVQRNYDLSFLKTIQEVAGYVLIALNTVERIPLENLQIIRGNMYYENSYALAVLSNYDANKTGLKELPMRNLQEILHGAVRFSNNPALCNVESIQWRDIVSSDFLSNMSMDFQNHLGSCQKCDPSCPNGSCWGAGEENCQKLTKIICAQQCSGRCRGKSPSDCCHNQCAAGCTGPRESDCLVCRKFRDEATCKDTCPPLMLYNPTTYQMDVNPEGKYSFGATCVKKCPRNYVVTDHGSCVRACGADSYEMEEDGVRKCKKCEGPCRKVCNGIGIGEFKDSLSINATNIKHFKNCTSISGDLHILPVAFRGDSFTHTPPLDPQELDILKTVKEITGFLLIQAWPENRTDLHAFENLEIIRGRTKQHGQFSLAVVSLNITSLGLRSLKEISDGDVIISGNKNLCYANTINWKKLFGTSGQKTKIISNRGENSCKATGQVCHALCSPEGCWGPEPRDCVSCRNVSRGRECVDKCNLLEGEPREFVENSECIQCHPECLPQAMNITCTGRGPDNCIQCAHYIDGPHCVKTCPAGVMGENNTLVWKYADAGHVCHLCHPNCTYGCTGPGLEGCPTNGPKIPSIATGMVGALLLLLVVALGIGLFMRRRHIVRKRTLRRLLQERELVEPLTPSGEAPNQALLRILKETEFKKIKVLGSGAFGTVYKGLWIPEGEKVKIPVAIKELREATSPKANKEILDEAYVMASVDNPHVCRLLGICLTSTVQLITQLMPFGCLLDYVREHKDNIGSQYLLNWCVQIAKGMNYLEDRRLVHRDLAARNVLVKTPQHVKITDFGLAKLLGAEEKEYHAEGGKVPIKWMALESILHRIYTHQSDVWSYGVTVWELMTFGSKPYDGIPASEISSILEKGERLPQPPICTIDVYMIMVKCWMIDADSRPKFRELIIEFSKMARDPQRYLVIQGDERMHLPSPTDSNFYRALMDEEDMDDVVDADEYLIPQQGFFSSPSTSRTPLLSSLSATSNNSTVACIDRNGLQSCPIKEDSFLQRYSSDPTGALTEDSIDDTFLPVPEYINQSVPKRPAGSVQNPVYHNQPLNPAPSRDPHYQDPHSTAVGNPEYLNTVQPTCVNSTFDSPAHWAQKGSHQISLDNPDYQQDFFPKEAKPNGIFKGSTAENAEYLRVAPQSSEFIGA
Sequence of Her2 Exon 20 INSYVMA Ba/F3 (P04626 with tags, fused parts or gaps DUP772-775): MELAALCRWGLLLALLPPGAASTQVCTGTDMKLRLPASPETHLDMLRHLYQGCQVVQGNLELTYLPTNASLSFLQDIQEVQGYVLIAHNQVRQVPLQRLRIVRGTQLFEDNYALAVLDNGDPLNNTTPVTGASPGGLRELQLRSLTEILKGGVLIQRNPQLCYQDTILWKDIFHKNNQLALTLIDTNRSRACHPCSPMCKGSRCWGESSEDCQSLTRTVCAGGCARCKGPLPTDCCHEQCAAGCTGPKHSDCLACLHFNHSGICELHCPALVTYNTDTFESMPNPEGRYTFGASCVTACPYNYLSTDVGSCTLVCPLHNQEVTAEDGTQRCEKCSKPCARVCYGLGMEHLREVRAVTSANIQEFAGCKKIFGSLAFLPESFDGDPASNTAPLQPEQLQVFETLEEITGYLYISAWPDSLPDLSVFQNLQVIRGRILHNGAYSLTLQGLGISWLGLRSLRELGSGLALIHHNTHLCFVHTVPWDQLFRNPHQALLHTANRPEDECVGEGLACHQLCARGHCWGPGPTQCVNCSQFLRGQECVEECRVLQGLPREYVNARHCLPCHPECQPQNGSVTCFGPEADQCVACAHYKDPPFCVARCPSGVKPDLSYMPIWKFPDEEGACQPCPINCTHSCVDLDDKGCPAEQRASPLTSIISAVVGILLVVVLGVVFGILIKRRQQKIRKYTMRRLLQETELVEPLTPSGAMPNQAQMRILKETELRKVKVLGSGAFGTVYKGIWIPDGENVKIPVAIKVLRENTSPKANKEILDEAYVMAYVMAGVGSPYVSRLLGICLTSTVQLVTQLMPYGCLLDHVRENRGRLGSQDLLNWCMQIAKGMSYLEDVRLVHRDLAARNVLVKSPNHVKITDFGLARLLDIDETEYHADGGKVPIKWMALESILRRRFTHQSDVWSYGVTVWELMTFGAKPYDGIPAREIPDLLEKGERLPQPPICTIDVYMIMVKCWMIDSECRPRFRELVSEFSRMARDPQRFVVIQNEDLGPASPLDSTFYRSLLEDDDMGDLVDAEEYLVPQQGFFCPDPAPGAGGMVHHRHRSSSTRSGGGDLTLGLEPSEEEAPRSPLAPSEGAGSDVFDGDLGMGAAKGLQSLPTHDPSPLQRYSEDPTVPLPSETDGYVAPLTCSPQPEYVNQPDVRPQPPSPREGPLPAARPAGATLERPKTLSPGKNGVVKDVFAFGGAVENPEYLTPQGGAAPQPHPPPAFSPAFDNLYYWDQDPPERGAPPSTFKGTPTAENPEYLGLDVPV
Sequence of EGFR Exon 20 INSNPH Ba/F3 (P00533 with tags, fused parts or gaps DUP771-773): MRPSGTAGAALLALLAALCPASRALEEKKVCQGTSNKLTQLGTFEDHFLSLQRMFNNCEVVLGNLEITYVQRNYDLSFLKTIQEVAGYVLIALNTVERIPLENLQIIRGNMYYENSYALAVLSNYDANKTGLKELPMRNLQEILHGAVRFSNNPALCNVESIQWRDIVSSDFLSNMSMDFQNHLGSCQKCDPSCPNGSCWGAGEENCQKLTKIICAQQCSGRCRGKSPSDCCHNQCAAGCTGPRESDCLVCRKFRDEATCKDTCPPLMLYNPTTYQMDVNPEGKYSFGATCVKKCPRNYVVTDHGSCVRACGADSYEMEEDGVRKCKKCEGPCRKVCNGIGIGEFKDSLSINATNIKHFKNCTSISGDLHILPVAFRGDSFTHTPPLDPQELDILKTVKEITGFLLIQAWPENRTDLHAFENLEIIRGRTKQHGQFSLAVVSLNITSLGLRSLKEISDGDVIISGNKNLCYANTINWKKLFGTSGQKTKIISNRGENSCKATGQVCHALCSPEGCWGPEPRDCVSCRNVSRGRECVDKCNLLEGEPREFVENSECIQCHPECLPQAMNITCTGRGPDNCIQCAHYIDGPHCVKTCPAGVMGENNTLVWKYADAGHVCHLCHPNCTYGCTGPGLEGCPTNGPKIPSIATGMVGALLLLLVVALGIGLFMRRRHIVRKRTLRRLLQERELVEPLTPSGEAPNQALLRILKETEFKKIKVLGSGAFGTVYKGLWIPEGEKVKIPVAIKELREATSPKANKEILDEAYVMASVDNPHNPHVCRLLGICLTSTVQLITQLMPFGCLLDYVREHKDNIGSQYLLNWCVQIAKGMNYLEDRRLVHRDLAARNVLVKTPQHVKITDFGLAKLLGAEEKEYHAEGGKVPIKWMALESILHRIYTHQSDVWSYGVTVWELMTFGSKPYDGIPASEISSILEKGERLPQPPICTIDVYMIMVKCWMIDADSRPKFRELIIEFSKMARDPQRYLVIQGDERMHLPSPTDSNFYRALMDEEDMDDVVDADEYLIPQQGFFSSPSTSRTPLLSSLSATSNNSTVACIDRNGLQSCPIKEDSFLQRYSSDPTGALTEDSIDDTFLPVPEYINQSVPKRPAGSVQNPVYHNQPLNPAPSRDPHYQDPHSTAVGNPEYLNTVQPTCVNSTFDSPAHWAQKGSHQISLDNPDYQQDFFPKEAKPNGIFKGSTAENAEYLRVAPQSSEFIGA

IC50 (HER2 INS YVMA) | GI50 [1] | GI50 [2] | IC50 (EGFR T790ML858R) | IC50 (EGFR wt) | IC50 (H1975) | IC50 (A431) | Stability in presence of mouse liver microsomes without cofactor NADPH [% remaining after 50 min] [3] | SMILES
≤ 100 nM | 500 to 1000 nM | 100 to 500 nM | ≤ 100 nM | ≤ 100 nM | ≤ 100 nM | 500 to 1000 nM | 90 % remaining after 50 min | C=CC(=O)Nc1cc(-c2c(-c3ccc(N4CCN(C(C)=O)CC4)cc3)[nH]c3nccc(OC)c23)ccc1C [Example 74, N-(5-(2-(4-(4-acetylpiperazin-1-yl)phenyl)-4-methoxy-1H-pyrrolo[2,3-b]pyridin-3-yl)-2-methylphenyl)acrylamide]
1000 to 10000 nM | 1000 to 10000 nM | 1000 to 10000 nM | ≤ 100 nM | 100 to 500 nM | 500 to 1000 nM | 1000 to 100000 nM | 97 % remaining after 50 min | C=CC(=O)Nc1cc(-c2c(-c3cccc(CN4CCOCC4)c3)[nH]c3ncccc23)ccc1C [Example 82, N-(2-methyl-5-(2-(3-(morpholinomethyl)phenyl)-1H-pyrrolo[2,3-b]pyridin-3-yl)phenyl)acrylamide]
≤ 100 nM | 100 to 500 nM | 100 to 500 nM | ≤ 100 nM | ≤ 100 nM | ≤ 100 nM | 500 to 1000 nM | >99 % remaining after 50 min | C=CC(=O)N1CCc2ccc(-c3c(-c4ccc(N5CCN(CC)CC5)cc4)[nH]c4nccc(Cl)c34)cc21 [Example 63, 1-(6-(4-chloro-2-(4-(4-ethylpiperazin-1-yl)phenyl)-1H-pyrrolo[2,3-b]pyridin-3-yl)indolin-1-yl)prop-2-en-1-one]
≤ 100 nM | 100 to 500 nM | 100 to 500 nM | ≤ 100 nM | ≤ 100 nM | 100 to 500 nM | 500 to 1000 nM | >99 % remaining after 50 min | C=CC(=O)N1CCOc2ccc(-c3c(-c4ccc(N5CCN(C(C)C)CC5)cc4)[nH]c4nccc(Cl)c34)cc21 [Example 85, 1-(6-(4-chloro-2-(4-(4-isopropylpiperazin-1-yl)phenyl)-1H-pyrrolo[2,3-b]pyridin-3-yl)-2H-benzo[b][1,4]oxazin-4(3H)-yl)prop-2-en-1-one]
100 to 500 nM | 100 to 500 nM | 100 to 500 nM | ≤ 100 nM | ≤ 100 nM | ≤ 100 nM |  | >99 % remaining after 50 min | C=CC(=O)Nc1cc(-c2c(-c3ccc(NS(C)(=O)=O)cc3)[nH]c3nccc(Cl)c23)ccc1C [Example 12, N-(5-(4-chloro-2-(4-(methylsulfonamido)phenyl)-1H-pyrrolo[2,3-b]pyridin-3-yl)-2-methylphenyl)acrylamide]
≤ 100 nM | 100 to 500 nM | 100 to 500 nM | ≤ 100 nM | ≤ 100 nM | ≤ 100 nM |  | >99 % remaining after 50 min | C=CC(=O)Nc1cc(-c2c(-c3ccc(C(=O)N4CCN(C)CC4)cc3)[nH]c3nccc(Cl)c23)ccc1C [Example 9, N-(5-(4-chloro-2-(4-(4-methylpiperazine-1-carbonyl)phenyl)-1H-pyrrolo[2,3-b]pyridin-3-yl)-2-methylphenyl)acrylamide]

Second part, the compound before the results:

SMILES | IC50 (HER2 INS YVMA) | GI50 [1] | GI50 [2] | IC50 (EGFR T790ML858R) | IC50 (EGFR wt) | IC50 (H1975) | IC50 (A431) | Stability in presence of mouse liver microsomes without cofactor NADPH [% remaining after 50 min] [3]
C=CC(=O)Nc1cc(-c2c(-c3ccc(CCN(C)C)cc3)[nH]c3ncc(C(=O)OC(C)C)cc23)ccc1C [Example 161, isopropyl 3-(3-acrylamido-4-methylphenyl)-2-(4-(2-(dimethylamino)ethyl)phenyl)-1H-pyrrolo[2,3-b]pyridine-5-carboxylate] | ≤ 100 nM | 100 to 500 nM | 100 to 500 nM | ≤ 100 nM | ≤ 100 nM | 100 to 500 nM | 1000 to 100000 nM | >99 % remaining after 50 min
C=CC(=O)Nc1cc(-c2c(-c3ccc(N4CCN(C)CC4)c(F)c3)[nH]c3nccc(Cl)c23)ccc1C [Example 42, N-(5-(4-chloro-2-(3-fluoro-4-(4-methylpiperazin-1-yl)phenyl)-1H-pyrrolo[2,3-b]pyridin-3-yl)-2-methylphenyl)acrylamide] | ≤ 100 nM | 100 to 500 nM | 100 to 500 nM | ≤ 100 nM | ≤ 100 nM | ≤ 100 nM | 100 to 500 nM | >99 % remaining after 50 min
C=CC(=O)N1CCc2ccc(-c3c(-c4ccc(N(C)CCN(C)C)cc4)[nH]c4nccc(Cl)c34)cc21 [Example 65, 1-(6-(4-chloro-2-(4-((2-(dimethylamino)ethyl)(methyl)amino)phenyl)-1H-pyrrolo[2,3-b]pyridin-3-yl)indolin-1-yl)prop-2-en-1-one] | ≤ 100 nM | 100 to 500 nM | 500 to 1000 nM | ≤ 100 nM | ≤ 100 nM | ≤ 100 nM | 500 to 1000 nM | >99 % remaining after 50 min
C=CC(=O)N1CCc2ccc(-c3c(-c4ccc(OCCN(C)C)cc4)[nH]c4nccc(Cl)c34)cc21 [Example 67, 1-(6-(4-chloro-2-(4-(2-(dimethylamino)ethoxy)phenyl)-1H-pyrrolo[2,3-b]pyridin-3-yl)indolin-1-yl)prop-2-en-1-one] | ≤ 100 nM | 100 to 500 nM | 100 to 500 nM | ≤ 100 nM | ≤ 100 nM | 100 to 500 nM | 1000 to 100000 nM | >99 % remaining after 50 min
C=CC(=O)N1CCc2ccc(-c3c(-c4cccc(OCCN5CCCC5)c4)[nH]c4nccc(OCC)c34)cc21 [Example 109, 1-(6-(4-ethoxy-2-(3-(2-(pyrrolidin-1-yl)ethoxy)phenyl)-1H-pyrrolo[2,3-b]pyridin-3-yl)indolin-1-yl)prop-2-en-1-one] | ≤ 100 nM | 100 to 500 nM | 100 to 500 nM | ≤ 100 nM | ≤ 100 nM | ≤ 100 nM | 500 to 1000 nM | 77 % remaining after 50 min
C=CC(=O)Nc1cc(-c2c(-c3ccc(N(C)CCN(C)C)cc3)[nH]c3ncc(C(=O)OC(C)C)cc23)cc(F)c1C [Example 172, isopropyl 3-(3-acrylamido-5-fluoro-4-methylphenyl)-2-(4-((2-(dimethylamino)ethyl)(methyl)amino)phenyl)-1H-pyrrolo[2,3-b]pyridine-5-carboxylate] | ≤ 100 nM | 100 to 500 nM | 100 to 500 nM | ≤ 100 nM | ≤ 100 nM | 100 to 500 nM | 1000 to 100000 nM | >99 % remaining after 50 min
C=CC(=O)Nc1cc(-c2c(-c3cccc(CN4CCOCC4)c3)[nH]c3nccc(Cl)c23)ccc1C [Example 7, N-(5-(4-chloro-2-(3-(morpholinomethyl)phenyl)-1H-pyrrolo[2,3-b]pyridin-3-yl)-2-methylphenyl)acrylamide] | 500 to 1000 nM | 500 to 1000 nM | 1000 to 10000 nM | ≤ 100 nM | 100 to 500 nM | 100 to 500 nM |  | >99 % remaining after 50 min
C=CC(=O)Nc1cc(-c2c(-c3cncnc3)[nH]c3nccc(Cl)c23)ccc1C [Example 24, N-(5-(4-chloro-2-(pyrimidin-5-yl)-1H-pyrrolo[2,3-b]pyridin-3-yl)-2-methylphenyl)acrylamide] | 100 to 500 nM | 500 to 1000 nM | 500 to 1000 nM | ≤ 100 nM | 100 to 500 nM | 100 to 500 nM |  | >99 % remaining after 50 min
